“And” between values parts separate entries of the source, which are not always exact repeats. Equal values may be shown once.
Key:
[1] = biological target: T1, Bcl-xL/BH3-interacting domain death agonist (Homo sapiens, UniProt Q07817); test: Inhibition of Bcl-xL/Bid complex (unknown origin); assay type: protein assay
[2] = biological target: T2, Bcl-xL/Bcl-2-like protein 11 (Homo sapiens, UniProt Q07817); test: Binding affinity to GST-tagged Bcl-xL/5-FAM-tagged Bim (unknown origin) assessed as inhibition constant by fluorescence polarization assay; assay type: protein assay
[3] = biological target: T3, BCL2/BID (Homo sapiens, UniProt P10415); test: Binding affinity to human Bcl-2 (29 to 44 residues)/5-FAM-tagged Bid (unknown origin) assessed as inhibition constant by fluorescence polarization assay; assay type: protein assay
[4] = biological target: T4, Induced myeloid leukemia cell differentiation protein Mcl-1/BH3-interacting domain death agonist (Homo sapiens, UniProt Q07820); test: Binding affinity to human N-terminal 8xHis tagged Mcl-1/5-FAM-tagged Bid (unknown origin) assessed as inhibition constant by fluorescence polarization assay; assay type: protein assay
[5] = biological target: T5, Induced myeloid leukemia cell differentiation protein Mcl-1 (Homo sapiens, UniProt Q07820); test: Binding affinity to wildtype Mcl-1 (unknown origin) assessed as dissociation constant by SPR analysis
[6] = Binding affinity to Mcl-1 H224A (unknown origin) assessed as dissociation constant by SPR analysis; set-up: species or system Homo sapiens
[7] = test system: HeLa; test: Cytotoxicity against human HeLa cells; assay type: functional, cell-based
[8] = test system: K562; test: Cytotoxicity against human K562 cells; assay type: functional, cell-based
[9] = biological target: T6, Induced myeloid leukemia cell differentiation protein Mcl-1/Bcl-2-like protein 11 (Homo sapiens, UniProt Q07820); test: Inhibition of Mcl-1/Bim (unknown origin) by ELISA method; assay type: protein assay
[10] = biological target: BCL2/BCL2L11 (Homo sapiens, UniProt P10415); test: Inhibition of Bcl-2/Bim (unknown origin) by ELISA method; assay type: protein assay
[11] = biological target: T4, Induced myeloid leukemia cell differentiation protein Mcl-1/BH3-interacting domain death agonist; test: Inhibition of Mcl-1/Bid (unknown origin) by fluorescence polarization assay; assay type: protein assay
[12] = biological target: T5, Induced myeloid leukemia cell differentiation protein Mcl-1; test: Binding affinity to Mcl-1 (unknown origin)
[13] = biological target: T1, Bcl-xL/BH3-interacting domain death agonist; test: Inhibition of Bcl-xL/Bid (unknown origin) by fluorescence polarization assay; assay type: protein assay
[14] = biological target: T7, BCL2L2/BID (Homo sapiens, UniProt P55957+Q92843); test: Binding affinity to Bcl-W/Bid (unknown origin) by fluorescence polarization assay; assay type: protein assay
T7 sequence (Q92843 whole entry): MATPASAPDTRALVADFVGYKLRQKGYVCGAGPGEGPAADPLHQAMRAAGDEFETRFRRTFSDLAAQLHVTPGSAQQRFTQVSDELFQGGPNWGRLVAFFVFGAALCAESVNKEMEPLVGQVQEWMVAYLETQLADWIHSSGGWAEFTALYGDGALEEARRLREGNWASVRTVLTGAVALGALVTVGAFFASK
T7 sequence (P55957 whole entry): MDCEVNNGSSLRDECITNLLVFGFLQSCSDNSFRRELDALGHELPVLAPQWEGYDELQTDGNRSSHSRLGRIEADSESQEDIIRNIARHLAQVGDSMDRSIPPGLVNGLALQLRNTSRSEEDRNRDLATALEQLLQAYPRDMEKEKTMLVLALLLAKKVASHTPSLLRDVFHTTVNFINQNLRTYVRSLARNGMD

[15] = biological target: T2, Bcl-xL/Bcl-2-like protein 11; test: Inhibition of Bcl-xL/Bim (unknown origin) by ELISA method; assay type: protein assay
[16] = test system: OPM-2; test: Cytotoxicity against human OPM-2 cells assessed as cell viability; assay type: functional, cell-based
[17] = biological target: T3, BCL2/BID; test: Binding affinity to Bcl-2/Bid (unknown origin) by fluorescence polarization assay; assay type: protein assay
[18] = biological target: T1, Bcl-xL/BH3-interacting domain death agonist; test: Binding affinity to Bcl-xL/Bid (unknown origin) by fluorescence polarization assay; assay type: protein assay
[19] = biological target: T4, Induced myeloid leukemia cell differentiation protein Mcl-1/BH3-interacting domain death agonist; test: Binding affinity to Mcl-1/Bid (unknown origin) by fluorescence polarization assay; assay type: protein assay
[20] = biological target: BCL2/BAD (Homo sapiens, UniProt P10415); test: Binding affinity to Bcl-2/Bad (unknown origin) assessed as inhibition constant by fluorescence polarisation assay; assay type: protein assay
[21] = Binding affinity to Bcl-xL/Bad (unknown origin) assessed as inhibition constant by fluorescence polarisation assay; set-up: species or system Homo sapiens
[22] = biological target: T3, BCL2/BID; test: Inhibition of Bcl-2/Bid (unknown origin); assay type: protein assay
[23] = biological target: T7, BCL2L2/BID; test: Inhibition of Bcl-W/Bid (unknown origin); assay type: protein assay
[24] = biological target: BCL2L10/BID (Homo sapiens, UniProt P55957+Q9HD36); test: Inhibition of Bcl-B/Bid (unknown origin); assay type: protein assay
[25] = biological target: T8, BCL2A1/BID (Homo sapiens, UniProt Q16548); test: Inhibition of Bfl-1/Bid (unknown origin); assay type: protein assay
T8 sequence (Q16548 whole entry): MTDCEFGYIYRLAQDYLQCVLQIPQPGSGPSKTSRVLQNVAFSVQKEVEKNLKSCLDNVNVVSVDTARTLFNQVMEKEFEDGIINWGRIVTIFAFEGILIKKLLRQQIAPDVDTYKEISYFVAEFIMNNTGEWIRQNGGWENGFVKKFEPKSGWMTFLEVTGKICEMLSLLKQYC
T8 sequence (P55957 whole entry): T7 sequence (P55957 whole entry)

[26] = biological target: T4, Induced myeloid leukemia cell differentiation protein Mcl-1/BH3-interacting domain death agonist; test: Inhibition of Mcl-1/Bid (unknown origin); assay type: protein assay
[27] = biological target: Apoptosis regulator Bcl-2/Bcl-2 homologous antagonist/killer (Homo sapiens, UniProt P10415+Q16611); test: Inhibition of Bcl-2/Bak (unknown origin); assay type: protein assay
[28] = biological target: T9, BCL2A1/BAK1 (Homo sapiens, UniProt Q16548+Q16611); test: Inhibition of Bfl-1/Bak (unknown origin); assay type: protein assay
T9 sequence (Q16611 whole entry): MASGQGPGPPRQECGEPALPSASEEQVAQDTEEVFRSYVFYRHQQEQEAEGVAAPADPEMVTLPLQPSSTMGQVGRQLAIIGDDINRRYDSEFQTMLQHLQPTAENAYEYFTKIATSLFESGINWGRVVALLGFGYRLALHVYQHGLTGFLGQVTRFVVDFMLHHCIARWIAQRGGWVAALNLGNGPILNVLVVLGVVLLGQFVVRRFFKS
T9 sequence (Q16548 whole entry): T8 sequence (Q16548 whole entry)

[29] = biological target: T5, Induced myeloid leukemia cell differentiation protein Mcl-1; test: Binding affinity to Mcl-1 (unknown origin) assessed as inhibition constant
[30] = biological target: Apoptosis regulator Bcl-2 (Homo sapiens, UniProt P10415); test: Binding affinity to Bcl-2 (unknown origin) assessed as inhibition constant
[31] = biological target: Bcl-2-like protein 1 (Homo sapiens, UniProt Q07817); test: Binding affinity to Bcl-xL (unknown origin) assessed as inhibition constant
[32] = biological target: T10, Bcl-xL/BAK (Homo sapiens, UniProt Q07817); test: Inhibition of Bcl-xL/Bak (unknown origin) by fluorescence polarization assay; assay type: protein assay
[33] = biological target: T11, MCL1-BAK1 complex (Homo sapiens, UniProt Q07820); test: Inhibition of Mcl-1/Bak (unknown origin) by fluorescence polarization assay; assay type: protein-complex assay
[34] = biological target: T11, MCL1-BAK1 complex; test: Binding affinity to Mcl-1/Bak (unknown origin) assessed as inhibition constant by fluorescence polarization assay; assay type: protein-complex assay
[35] = biological target: T10, Bcl-xL/BAK; test: Binding affinity to Bcl-xL/Bak (unknown origin) assessed as dissociation constant by ITC method; assay type: protein assay
[36] = biological target: T2, Bcl-xL/Bcl-2-like protein 11; test: Inhibition of GST-tagged Bcl-xL/Bim (unknown origin) incubated for 15 mins followed by Bim addition measured after 2 hrs by ELISA method; assay type: protein assay
[37] = biological target: T6, Induced myeloid leukemia cell differentiation protein Mcl-1/Bcl-2-like protein 11; test: Inhibition of GST-tagged Mcl-1/Bim (unknown origin) incubated for 15 mins followed by Bim addition measured after 2 hrs by ELISA method; assay type: protein assay
[38] = Inhibition of Bak/Bcl-xL (unknown origin) protein protein interaction by fluorescence polarization assay; set-up: species or system Homo sapiens
[39] = biological target: T11, MCL1-BAK1 complex; test: Inhibition of Bak/Mcl-1 (unknown origin) protein protein interaction by fluorescence polarization assay; assay type: protein-complex assay
[40] = Binding affinity to Bak/Bcl-xL (unknown origin) protein protein interaction by fluorescence polarization assay; set-up: species or system Homo sapiens

T1 sequence (Q07817 whole entry, one chain of several, the tested form may be a part): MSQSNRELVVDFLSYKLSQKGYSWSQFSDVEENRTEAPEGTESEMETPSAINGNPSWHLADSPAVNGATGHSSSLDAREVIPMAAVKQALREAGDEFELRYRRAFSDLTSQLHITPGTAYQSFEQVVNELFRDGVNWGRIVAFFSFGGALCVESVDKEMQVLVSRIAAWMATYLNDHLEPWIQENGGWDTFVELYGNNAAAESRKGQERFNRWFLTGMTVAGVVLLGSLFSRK
T2 sequence (Q07817 whole entry, the tested form may be a part): as the sequence (Q07817 whole entry, one chain of several, the tested form may be a part) above
T2 sequence (O43521 whole entry, further chain, the tested form may be a part): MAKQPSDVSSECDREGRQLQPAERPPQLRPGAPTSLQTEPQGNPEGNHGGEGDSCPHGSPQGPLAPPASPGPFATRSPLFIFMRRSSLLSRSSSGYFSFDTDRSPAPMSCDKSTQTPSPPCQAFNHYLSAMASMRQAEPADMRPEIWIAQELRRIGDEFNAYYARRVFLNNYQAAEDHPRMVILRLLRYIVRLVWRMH
T10 sequence (Q07817 whole entry, one chain of several): as the sequence (Q07817 whole entry, one chain of several, the tested form may be a part) above
T11 sequence (Q07820 whole entry, one chain of several): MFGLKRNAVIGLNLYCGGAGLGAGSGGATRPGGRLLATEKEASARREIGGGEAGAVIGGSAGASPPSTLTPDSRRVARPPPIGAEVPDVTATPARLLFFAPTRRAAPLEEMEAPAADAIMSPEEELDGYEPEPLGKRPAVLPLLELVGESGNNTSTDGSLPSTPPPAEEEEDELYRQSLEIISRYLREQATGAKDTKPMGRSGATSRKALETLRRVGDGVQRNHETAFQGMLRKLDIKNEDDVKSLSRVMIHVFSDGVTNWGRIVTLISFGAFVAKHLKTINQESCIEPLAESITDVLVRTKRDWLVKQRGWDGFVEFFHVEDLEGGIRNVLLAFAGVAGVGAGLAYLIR
T6 sequence (Q07820 whole entry): as the sequence (Q07820 whole entry, one chain of several) above
T6 sequence (O43521 whole entry, further chain): as the sequence (O43521 whole entry, further chain, the tested form may be a part) above
T5 sequence (Q07820 whole entry): as the sequence (Q07820 whole entry, one chain of several) above
T4 sequence (Q07820 whole entry, one chain of several, the tested form may be a part): as the sequence (Q07820 whole entry, one chain of several) above
T3 sequence (P10415 whole entry, one chain of several, the tested form may be a part): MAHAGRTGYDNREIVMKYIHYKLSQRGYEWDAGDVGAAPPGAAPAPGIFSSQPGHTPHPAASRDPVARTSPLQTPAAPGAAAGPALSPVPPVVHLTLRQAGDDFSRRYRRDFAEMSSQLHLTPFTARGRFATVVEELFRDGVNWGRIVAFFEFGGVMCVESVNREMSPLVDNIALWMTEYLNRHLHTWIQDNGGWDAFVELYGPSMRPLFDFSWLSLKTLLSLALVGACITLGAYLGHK
Chain of BCL2/BAD (Q92934 whole entry): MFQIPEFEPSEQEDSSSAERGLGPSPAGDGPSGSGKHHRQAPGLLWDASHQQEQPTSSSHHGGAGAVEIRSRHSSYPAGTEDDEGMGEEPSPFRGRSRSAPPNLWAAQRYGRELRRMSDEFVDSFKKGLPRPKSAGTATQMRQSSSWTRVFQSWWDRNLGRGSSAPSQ
Chain of BCL2/BAD (P10415 whole entry): as the sequence (P10415 whole entry, one chain of several, the tested form may be a part) above
Chain of Bcl-2-like protein 1 (Q07817 whole entry): as the sequence (Q07817 whole entry, one chain of several, the tested form may be a part) above
Chain of Apoptosis regulator Bcl-2/Bcl-2 homologous antagonist/killer (P10415 whole entry, one chain of several): as the sequence (P10415 whole entry, one chain of several, the tested form may be a part) above
Chain of Apoptosis regulator Bcl-2 (P10415 whole entry): as the sequence (P10415 whole entry, one chain of several, the tested form may be a part) above
Chain of BCL2/BCL2L11 (P10415 whole entry, the tested form may be a part): as the sequence (P10415 whole entry, one chain of several, the tested form may be a part) above
Chain of BCL2/BCL2L11 (O43521 whole entry, further chain, the tested form may be a part): as the sequence (O43521 whole entry, further chain, the tested form may be a part) above
Chain of BCL2L10/BID (Q9HD36 whole entry, one chain of several): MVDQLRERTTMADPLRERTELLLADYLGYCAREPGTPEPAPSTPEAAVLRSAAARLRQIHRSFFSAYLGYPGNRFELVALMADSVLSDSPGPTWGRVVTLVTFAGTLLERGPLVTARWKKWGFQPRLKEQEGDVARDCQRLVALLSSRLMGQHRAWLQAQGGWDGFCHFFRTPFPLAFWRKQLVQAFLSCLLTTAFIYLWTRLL

Cc1cs/c(=N\C2CCCCC2)n1/N=C/c1ccc(O)c(O)c1O
IC50 [1]: > 50000 nM

O=C(Nc1ccccc1)C1=CN=c2s/c(=C\c3cn(Cc4ccccc4F)c4ccccc34)c(=O)n2C1c1ccc(F)cc1 (centres undefined)
Ki [2]: 1640 nM | Ki [3]: 2670 nM | Ki [4]: 1050 nM

O=C(COc1ccc2ccccc2c1)NCCN1C(=O)c2cccc3c(Sc4ccc(Br)cc4)ccc(c23)C1=O
Kd [5]: 150 nM | Kd [6]: 1130 nM | IC50 [7]: 43200 nM | IC50 [8]: 10100 nM | IC50 [9]: 510 nM | IC50 [10]: 9460 nM

CC1=C(C2=C(C)C(=O)c3c(cc(O)c(O)c3C(C)C)C2=O)C(=O)c2cc(O)c(O)c(C(C)C)c2C1=O
IC50 [11]: 25 nM | Ki [12]: 25000 nM | IC50 [13]: 660 nM

O=C(O)CSc1cc(NS(=O)(=O)c2cccs2)c2ccccc2c1O
Ki [14]: 37500 nM

O=C(c1ccccc1O)c1[nH]c(Cl)c(Cl)c1-n1c(C(=O)c2ccccc2O)cc(Cl)c1Cl
IC50 [9]: 12700 nM and 12500 nM | IC50 [15]: 19700 nM and 12000 nM

O=C(O)C(O)c1ccccc1 (centres undefined) [MANDELIC ACID]
IC50 [16]: 19 nM

O=C(Cn1nnnc1-c1ccccc1Oc1ccc(Cl)cc1Cl)NNC(=S)Nc1ccc([N+](=O)[O-])cc1
Ki [17]: 2400 nM | Ki [18]: 3000 nM | Ki [19]: 2000 nM

O=C(O[C@@H]1Cc2c(O)cc(O)cc2O[C@@H]1c1cc(O)c(O)c(O)c1)c1cc(O)c(O)c(O)c1 [EPIGALOCATECHIN GALLATE]
Ki [20]: 490 nM | Ki [21]: 335 nM | IC50 [1]: 590 nM | IC50 [22]: 450 nM | IC50 [23]: 2330 nM | IC50 [24]: 360 nM | IC50 [25]: 1790 nM | IC50 [26]: 920 nM

CC1=C(C2=C(C)C(=O)c3c(cc(O)c(O)c3Cc3ccccc3)C2=O)C(=O)c2cc(O)c(O)c(Cc3ccccc3)c2C1=O
IC50 [27]: 31000 nM | IC50 [28]: 25000 nM

O=C(O)C1C2CC(Sc3ccccc3[N+](=O)[O-])C(Cl)C2c2cc(Cl)cc3c2N1CC1CC=CC31 (centres undefined)
Ki [29]: 530 nM | Ki [30]: 15000 nM | Ki [31]: ≥ 50000 nM

CC(C)C(C(=O)O)N1C(=O)/C(=C/c2ccc(Br)cc2)SC1=S (centres undefined)
IC50 [32]: 91000 nM | IC50 [33]: 110000 nM | Ki [34]: 44000 nM | Kd [35]: 8700 nM

O=C(c1ccc(SCc2ccccc2)cc1O)c1[nH]c(Cl)c(Cl)c1-n1cc(Cl)c(Cl)c1C(=O)c1ccc(SCc2ccccc2)cc1O
IC50 [36]: 600 nM | IC50 [37]: 700 nM

CC(C)Oc1cc(C(=O)Nc2ccc(C(=O)Nc3ccc(C(=O)O)cc3OC(C)C)nc2OC(C)C)ccc1N
IC50 [38]: 394 nM | IC50 [39]: 10200 nM | Ki [40]: 179 nM

C[n+]1cc2cc3c(cc2c2ccc4cc5c(cc4c21)OCO5)OCO3
IC50 [32]: 19000 nM | IC50 [33]: 44000 nM
